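Following 48 hours of exposure in 96-well plates, responses at five concentrations were used to interpolate endpoints linearly. The concentration for 50% growth inhibition is given as GI50. TGI denotes the concentration required for complete inhibition of growth.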
Experiments:
Assay in all cases: inhibition of tumour cell growth, NCI panel, 48 h
[1] = test system: SF-268 CNS
[2] = test system: LOX IMVI melanoma
[3] = test system: EKVX NSCLC
[4] = test system: KM12 colon
[5] = test system: ACHN renal
[6] = test system: SF-295 CNS
[7] = test system: TK-10 renal
[8] = test system: UACC-62 melanoma
[9] = test system: HOP-62 NSCLC
[10] = test system: OVCAR-4 ovarian

Compound | TGI [1] [µM] | TGI [2] [µM] | TGI [3] [µM] | TGI [4] [µM] | TGI [5] [µM] | TGI [6] [µM] | TGI [7] [µM] | TGI [8] [µM] | TGI [9] [µM] | TGI [10] [µM] | GI50 [1] [µM] | GI50 [2] [µM] | GI50 [3] [µM] | GI50 [4] [µM] | GI50 [5] [µM] | GI50 [6] [µM] | GI50 [7] [µM] | GI50 [8] [µM] | GI50 [9] [µM] | GI50 [10] [µM]
O=[N+]([O-])c1ccc(/C=C/c2cc(-c3ccccc3)nc3ccc4ccccc4c23)cc1 | > 100 | > 100 | > 100 | > 100 | > 100 | > 100 | > 100 | > 100 | > 100 | > 100 | – | – | – | – | – | – | – | – | – | –
C/C1=C\CC[C@@]2(C)O[C@@H]2C[C@@H](C2(C)CO2)CC/C(C)=C/CC1 (stereo not given in full) | 33.9 | 28.8 | 36.1 | 34.3 | 35.1 | 51 | 32.5 | 40.4 | 97.3 | > 100 | – | – | – | – | – | – | – | – | – | –
Cc1c(N2C(=O)C(Cl)C2c2ccc(Cl)cc2)c(=O)n(-c2ccccc2)n1C (stereo not given) | > 100 | 91.6 | > 100 | > 100 | 83.2 | > 100 | > 100 | > 100 | > 100 | > 100 | – | – | – | – | – | – | – | – | – | –
COc1nc2ncc([C@@H](OC(C)=O)[C@@H](COC(C)=O)OC(C)=O)nc2c(=O)[nH]1 | > 100 | > 100 | > 100 | > 100 | > 100 | > 100 | > 100 | > 100 | > 100 | > 100 | – | – | – | – | – | – | – | – | – | –
Nc1nc(N)c(N=O)c(Nc2ccc(Br)cc2)n1 | 57.1 | 66.5 | > 100 | > 100 | 49.3 | > 100 | 70.4 | 19.4 | 63.9 | > 100 | – | – | – | – | – | – | – | – | – | –
C(/C=C(\Nc1ccccc1)C12CC3CC(CC(C3)C1)C2)=Nc1ccccc1 | 41.1 | 28.6 | 39.4 | 35.2 | 26.4 | 36.5 | 45.4 | 25.7 | 45.7 | 48.8 | – | – | – | – | – | – | – | – | – | –
Cc1cn(-c2cc(C(=O)Nc3cccc(-n4ccc5c(NC(=O)c6ccccc6)nccc54)c3)cc(C(F)(F)F)c2)cn1 | 7.89 | 2.07 | 30.2 | 1.46 | 8.7 | 1.44 | 5.27 | 12.7 | 15.3 | 18 | 0.514 | 0.379 | 2.32 | 0.372 | 0.549 | 0.306 | 0.855 | 0.366 | 0.628 | 1.17
COc1cc(-c2cc(=O)c3cc4c(=O)cc(-c5cc(OC)c(OC)c(OC)c5)oc4cc3o2)cc(OC)c1OC | > 94.7 | > 100 | > 100 | > 100 | > 85.1 | 40.6 | 42.5 | > 64.5 | 26.4 | > 100 | – | – | – | – | – | – | – | – | – | –
COc1ccc(-c2c3c([nH]c(=S)c2C#N)CC(C)(C)CC3=O)cc1 | > 100 | > 100 | > 100 | > 100 | > 100 | > 100 | > 100 | > 100 | > 100 | > 100 | – | – | – | – | – | – | – | – | – | –
COC(=O)CN1c2nc(C#N)c(C#N)nc2N(CC(=O)OC)c2nc(C#N)c(C#N)nc21 | 11.4 | > 20.1 | > 51.3 | 27.8 | 5.72 | 43.5 | 6.78 | 42.4 | 34.3 | 17.3 | – | – | – | – | – | – | – | – | – | –
O=C(CN(c1ccccc1)c1ccccc1)N1c2ccccc2C2C=CC=CC21 (stereo not given) | > 57 | 44.5 | > 59.4 | 96.8 | > 59.1 | 58.8 | > 57.2 | 50.6 | 41.5 | > 100 | – | – | – | – | – | – | – | – | – | –
CC[n+]1[b-](C(C)(C)C)n(/N=C/C(C)(C)C)[b-](C(C)(C)C)[n+]1CC | > 100 | > 100 | > 100 | > 100 | > 100 | > 100 | > 100 | > 100 | > 100 | > 100 | – | – | – | – | – | – | – | – | – | –
CCN(CC)CCCNC(=O)c1ccc([N+](=O)[O-])cc1O | > 100 | > 100 | > 100 | > 100 | > 100 | > 100 | > 100 | > 100 | > 100 | > 100 | – | – | – | – | – | – | – | – | – | –
N/C(=N\S(=O)(=O)c1c(C(F)(F)F)cccc1C(F)(F)F)Nc1ccc(Cl)cc1 | > 100 | 48.1 | 36.2 | > 100 | 56 | > 100 | 65 | 50.5 | > 100 | > 100 | – | – | – | – | – | – | – | – | – | –
CC(=O)c1cccn1/C=C(\OC(=O)OC(C)(C)C)c1ccc[nH]1 | > 100 | > 100 | > 100 | > 100 | > 100 | > 100 | > 100 | > 100 | > 100 | > 100 | – | – | – | – | – | – | – | – | – | –
CC(C(=O)N1C(=O)N(C(=O)C(C)C(O)c2ccccc2)C2CCCCC21)C(O)c1ccccc1 (stereo not given) | > 100 | > 100 | > 100 | > 100 | > 100 | > 100 | > 100 | > 100 | > 100 | > 100 | – | – | – | – | – | – | – | – | – | –
CCC1=CC2CN3Cn4c(c(COCc5c6n(c7ccccc57)CN5CC7C=C(CC)C5C6(C(=O)OC)C7)c5ccccc54)C(C(=O)OC)(C2)C13 | > 100 | > 100 | > 100 | > 100 | > 100 | > 100 | > 100 | > 100 | > 100 | > 100 | – | – | – | – | – | – | – | – | – | –
NC(CC1=CS(=O)(=O)c2ccc(Cl)cc21)C(=O)O (stereo not given) | > 100 | > 100 | > 100 | > 100 | > 100 | > 100 | > 100 | > 100 | > 100 | > 100 | – | – | – | – | – | – | – | – | – | –
CCCCn1cnc2c(c(CC#N)nn2-c2ccccc2)c1=N | > 100 | > 100 | > 100 | > 100 | > 100 | > 100 | > 100 | 53.1 | > 100 | > 100 | – | – | – | – | – | – | – | – | – | –
O=C1CC(C(O)(C(F)(F)F)C(F)(F)Cl)CCC1C(O)(C(F)(F)F)C(F)(F)Cl (stereo not given) | > 10 | > 10 | > 10 | > 10 | > 10 | > 10 | > 10 | > 10 | > 10 | > 10 | – | – | – | – | – | – | – | – | – | –
O=C(NCCCN(CCCCN(CCCNC(=O)C(F)(F)F)Cc1ccc2ccccc2c1)Cc1ccc2ccccc2c1)C(F)(F)F | > 100 | > 100 | > 100 | > 100 | > 100 | > 100 | > 100 | 5.41 | > 100 | > 100 | – | – | – | – | – | – | – | – | – | –
C[C@@H]1S[C@H](c2ccccc2F)N2Cc3ccccc3N=C12 | > 100 | 38.1 | 95.9 | > 100 | > 100 | > 100 | 94.2 | 54.8 | > 100 | 85.4 | – | – | – | – | – | – | – | – | – | –
COC(C)(C)[C@@H](O)[C@H]1C[C@H](C)[C@@]2(CC[C@]3(C)[C@@H]2CC[C@@H]2[C@@]4(C)CC[C@@H](OC(C)=O)C(C)(C)[C@@H]4C[C@@H](OC4OC(COC(C)=O)C(O)C(O)C4O)[C@]23C)O1 (stereo not given in full) | 18.6 | 14.9 | 19.5 | 3.62 | 18.3 | 16.5 | 24.6 | 18.6 | 25 | 14.4 | – | – | – | – | – | – | – | – | – | –
CC(=O)Oc1cc(C(F)(F)F)ccc1C(=O)OC1(C)OC(=O)c2ccc(C(F)(F)F)cc2O1 (stereo not given) | > 100 | > 100 | > 100 | > 100 | > 100 | > 100 | > 100 | > 100 | > 100 | > 100 | – | – | – | – | – | – | – | – | – | –

— PubChem BioAssay (NCI)
